Laboratory results reported in patent US11517729B2, “Integrated fiber microneedle device for drug and vaccine delivery” (University of Washington, priority 2018, dated 2022).

Assay: Release studies of integrated fiber microneedles in PBS
Format: physicochemical
Experimental: A small molecule drug, a model protein, and plasmid DNA were loaded into individual devices and the release kinetics of each were measured. These agents were loaded into an array of 420 needles, with a total device size of 4.2 cm^2. In this experiment, the needles were 350 μm in diameter and 800 μm tall. […] Each agent was successfully loaded into the fiber-microneedle system using a loading of 100 μg for the small molecule, […] for the protein, and 1.1 μg for the DNA. […] This plateau occurred at different percent release for the different agents. The small molecule plateaued at 70% release, the protein plateaued at 35% release, and the plasmid DNA plateaued around 80% release. […]
Data represent release from a single array of integrated fiber microneedles. Complete (100%) release was determined by TFV detected in release media after 84 days. […] 100% release was determined by DNA detected in release media after 25 days.
Microneedle characterization: SEM imaging of electrospun fibers on the two-layer composite microneedle molds and completed microneedles was performed on a JEOL JSM7400F cold field emission scanning electron microscope. […] TFV content was determined by HPLC (Shimadzu Prominence LC20AD UV-HPLC) with a Phenomenex Luna 153 C18 column and LCSolutions software. […] The column was heated to 30° C., and TFV was detected at 259 nm. BSA content was analyzed by the Pierce MicroBCA Assay. […]

SMILES: C[C@H](Cn1cnc2c(N)ncnc21)OCP(=O)(O)O [TFV, tenofovir]
- plateau of percent release (TFV from integrated fiber microneedles into PBS, HPLC, 100% = TFV detected in release media after 84 days, single array): 70%
- release profile (from integrated fiber microneedles (array of 420 needles) into PBS): sharp initial burst release followed by a plateau
